The values below come from publication PMC11985001, “Melatonin rescues cell respiration impaired by hypoxia/reoxygenation in aortic endothelial cells and affects the mitochondrial bioenergetics targeting the F1FO-ATPase” (Redox Biology, 2025).

As a reminder, the IC50 is the midpoint of a concentration-inhibition curve.

Experiment [1] has as its target T1, F1 domain of mitochondrial F1FO-ATPase (Ca2+-activated F1-ATPase) (Sus scrofa, UniProt K7GLT8+P80021).
T1 construct: gene ATP5F1B; native whole F1FO-ATPase in frozen-thawed pig heart mitochondria; not purified F1
As to the kind of experiment: ATP hydrolysis (Pi release) with partially purified F1 at […] melatonin; IC50 from the mitochondrial Ca2+-activated F1FO-ATPase (K'i […]). It counts as biochemical.

For experiment [2], the target named is T2, F1 domain of mitochondrial F1FO-ATPase (F1-ATPase) (Sus scrofa, UniProt K7GLT8+P80021).
T2 construct: gene ATP5F1B; partially purified F1 domain from swine heart mitochondria; with other subunits of the F1 complex
Nature of the experiment: ATP hydrolysis (Pi release) with partially purified F1, […] NBD-Cl. Format: biochemical.

T1 sequence (K7GLT8 89-570): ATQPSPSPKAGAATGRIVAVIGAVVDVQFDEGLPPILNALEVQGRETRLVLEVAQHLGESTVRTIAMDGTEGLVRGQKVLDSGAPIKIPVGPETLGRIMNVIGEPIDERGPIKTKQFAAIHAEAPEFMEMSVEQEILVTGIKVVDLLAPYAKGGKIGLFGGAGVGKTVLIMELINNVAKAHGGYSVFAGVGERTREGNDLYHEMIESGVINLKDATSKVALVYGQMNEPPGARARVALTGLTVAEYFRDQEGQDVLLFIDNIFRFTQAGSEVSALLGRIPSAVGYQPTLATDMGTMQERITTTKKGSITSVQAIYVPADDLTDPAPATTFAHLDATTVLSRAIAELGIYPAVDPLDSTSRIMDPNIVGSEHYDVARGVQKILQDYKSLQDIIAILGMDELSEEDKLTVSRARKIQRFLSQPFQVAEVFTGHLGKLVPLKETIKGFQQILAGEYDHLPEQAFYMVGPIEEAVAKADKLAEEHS
T1 sequence (P80021 44-553): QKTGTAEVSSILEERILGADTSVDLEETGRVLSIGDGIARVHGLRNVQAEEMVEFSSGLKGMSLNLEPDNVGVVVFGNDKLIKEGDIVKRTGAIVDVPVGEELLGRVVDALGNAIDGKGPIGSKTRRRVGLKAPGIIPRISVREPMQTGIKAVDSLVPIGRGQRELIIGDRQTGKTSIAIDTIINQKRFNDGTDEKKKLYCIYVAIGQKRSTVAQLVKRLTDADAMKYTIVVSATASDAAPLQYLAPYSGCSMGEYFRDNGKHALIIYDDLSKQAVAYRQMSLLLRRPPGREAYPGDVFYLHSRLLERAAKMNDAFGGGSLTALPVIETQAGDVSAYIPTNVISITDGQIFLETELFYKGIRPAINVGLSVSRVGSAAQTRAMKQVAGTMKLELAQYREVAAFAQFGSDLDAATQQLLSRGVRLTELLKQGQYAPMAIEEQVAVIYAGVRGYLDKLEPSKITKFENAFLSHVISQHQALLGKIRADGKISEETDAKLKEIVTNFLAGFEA
T1 sequence (A0A286ZYL7 23-168 partner): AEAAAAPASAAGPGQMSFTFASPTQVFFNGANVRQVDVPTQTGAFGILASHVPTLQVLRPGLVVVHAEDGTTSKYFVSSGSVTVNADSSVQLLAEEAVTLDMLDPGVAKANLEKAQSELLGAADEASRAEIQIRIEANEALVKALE
T1 sequence (A5GFX4 2-51 partner): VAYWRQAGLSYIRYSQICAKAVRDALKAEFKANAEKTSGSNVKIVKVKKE
T1 sequence (Q2EN81 24-213 partner): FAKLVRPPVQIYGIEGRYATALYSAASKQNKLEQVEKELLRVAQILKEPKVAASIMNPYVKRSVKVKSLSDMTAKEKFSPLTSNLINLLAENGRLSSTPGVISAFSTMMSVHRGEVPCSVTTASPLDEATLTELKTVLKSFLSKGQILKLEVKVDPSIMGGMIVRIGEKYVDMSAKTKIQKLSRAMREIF
T1 sequence (Q35915 whole entry partner, the tested form may be a part): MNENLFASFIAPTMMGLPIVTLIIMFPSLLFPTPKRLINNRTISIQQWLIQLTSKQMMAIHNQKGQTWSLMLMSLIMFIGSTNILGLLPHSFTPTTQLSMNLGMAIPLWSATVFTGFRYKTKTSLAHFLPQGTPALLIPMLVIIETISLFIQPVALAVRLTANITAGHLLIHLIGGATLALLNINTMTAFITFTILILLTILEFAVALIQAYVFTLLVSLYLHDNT
T2 sequence (K7GLT8 89-570): as the sequence (K7GLT8 89-570) above
T2 sequence (P80021 44-553): as the sequence (P80021 44-553) above
T2 sequence (A0A286ZYL7 23-168 partner): as the sequence (A0A286ZYL7 23-168 partner) above
T2 sequence (A5GFX4 2-51 partner): as the sequence (A5GFX4 2-51 partner) above

The molecule `COc1ccc2[nH]cc(CCNC(C)=O)c2c1` [melatonin] yielded an IC50 in experiment [1] of 6.63 ± 2.33 mM.

Regarding `O=[N+]([O-])c1ccc(Cl)c2nonc12` [NBD-Cl], in experiment [2], the “ATP hydrolysis (Pi release) with partially purified F1, 75 μM NBD-Cl” value was “F1-ATPase activity was insensitive to oligomycin and was inhibited by NBD-Cl”.
